Results reported in patent publication US11198713B2, “Agents modulating beta-catenin functions and methods thereof” (FOG PHARMACEUTICALS, INC., priority 2017, dated 2021).
pEC50: −log10 of the molar value. Numbered stars: 1 amine (or outer) side, 2 acyl side, 3 side chain; on linkers, the order of the positions; unused ones are H or OH. Bridge positions count the residues as written; N and C are the ends. Square brackets hold non-standard residues; d marks the D form. Peptide text beside a SMILES is read from it. dαMeDap(Me) = CN(C[C@@](C)(N[*:1])C(=O)[*:2])[*:3]; αMeDab(Me) = CN(CC[C@](C)(N[*:1])C(=O)[*:2])[*:3]; X14 = O=C([C@@]1(N[*:1])CCN(CC=[*:3])C1)[*:2]; X2 = O=C(OCC=CCOC(=O)[*:2])[*:1]; S8 = C=CCCCCCC[C@](C)(N)C(=O)O

These compounds were tested against T1, full-length beta-catenin (Axin site) (Homo sapiens, UniProt P35222) (assay: Competition fluorescence polarization assay (Axin site probe)). Details: competition fluorescence polarization, Table 2; read-out: in vitro FP EC50.
T1 construct: 15 nM full-length beta-catenin, 20 nM FITC labeled peptide in buffer
T1 sequence (P35222 1-781): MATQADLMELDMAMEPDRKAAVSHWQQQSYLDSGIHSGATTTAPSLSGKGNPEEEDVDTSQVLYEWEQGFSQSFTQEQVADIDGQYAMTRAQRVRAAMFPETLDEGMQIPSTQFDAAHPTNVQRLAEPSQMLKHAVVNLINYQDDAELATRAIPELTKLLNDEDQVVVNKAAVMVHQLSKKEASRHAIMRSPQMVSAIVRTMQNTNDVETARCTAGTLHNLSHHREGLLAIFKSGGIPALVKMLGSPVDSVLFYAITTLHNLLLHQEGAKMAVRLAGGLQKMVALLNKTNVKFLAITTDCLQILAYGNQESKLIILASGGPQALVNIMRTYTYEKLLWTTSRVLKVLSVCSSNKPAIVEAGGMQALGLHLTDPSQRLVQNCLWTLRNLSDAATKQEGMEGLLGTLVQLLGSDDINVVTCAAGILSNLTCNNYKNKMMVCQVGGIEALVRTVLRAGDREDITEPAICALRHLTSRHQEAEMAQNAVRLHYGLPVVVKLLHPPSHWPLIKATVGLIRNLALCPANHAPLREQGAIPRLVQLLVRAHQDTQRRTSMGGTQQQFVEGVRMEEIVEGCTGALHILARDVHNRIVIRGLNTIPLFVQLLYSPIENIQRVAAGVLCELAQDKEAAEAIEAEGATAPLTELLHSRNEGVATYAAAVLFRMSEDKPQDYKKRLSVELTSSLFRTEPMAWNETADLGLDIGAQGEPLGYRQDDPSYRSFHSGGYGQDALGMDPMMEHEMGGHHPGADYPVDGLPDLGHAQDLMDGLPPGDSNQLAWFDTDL
Format: binding
Method in brief: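 Competition FP: 15 nM full-length β-catenin pre-incubated 5 min with 20 nM FITC-labelled stapled Axin-site peptide, then titrated peptide added (3-fold series from 5 μM) for 15 min in the dark. Buffer 50 mM Tris pH 8.0, 250 mM NaCl, 2% glycerol, 0.5 mM EDTA; duplicate reads.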
A pEC50 of 5.30 to 6.30 was found for CC[C@H](C)[C@@H]1NC(=O)[C@H](Cc2c[nH]cn2)NC(=O)[C@H](C)NC(=O)[C@H](CC(=O)O)NC(=O)[C@H](CC(C)C)NC(=O)[C@H]([C@@H](C)CC)NC(=O)[C@](C)(NC(=O)[C@H](C)NC(C)=O)CCCCCC=CCN2CC(C(=O)N[C@@H](CCCNC(=N)N)C(=O)N[C@H](C(=O)N[C@@H](Cc3c[nH]c4ccccc34)C(N)=O)C(C)C)(C2)NC1=O (single isomer, unassigned) [FP0516a Isomer 2, Ac-A-R7-I-L-D-A-H-I-MA-R-V-W-NH2] in this work. In the case of CC[C@H](C)[C@@H]1NC(=O)[C@H](Cc2ccccn2)NC(=O)[C@H](C)NC(=O)[C@H](CC(=O)O)NC(=O)[C@H](CC(C)C)NC(=O)[C@H]([C@@H](C)CC)NC(=O)[C@](C)(NC(=O)[C@H](C)NC(C)=O)CCCCCCC=CCOC(=O)N2CC[C@@](C(=O)N[C@@H](CC(C)C)C(=O)N[C@H](C(=O)N[C@@H](Cc3c[nH]c4ccccc34)C(N)=O)C(C)C)(C2)NC1=O (single isomer, unassigned) [FP0557c Isomer 2, Ac-A-R8-I-L-D-A-2pyr-I-MB-L-V-W-NH2], the pEC50 was < 5.30. A pEC50 of 5.30 to 6.30 was found for CC[C@H](C)[C@@H]1NC(=O)[C@](C)(NC(=O)[C@H](CCC(N)=O)NC(=O)[C@@H]2CCCN2C(C)=O)CCCCC=CCN2CC(C(=O)N[C@@H](Cc3c[nH]cn3)C(=O)N[C@H](C(=O)N[C@@H](CCCNC(=N)N)C(=O)N[C@@H](CCCNC(=N)N)C(=O)N[C@H](C(=O)N[C@@H](Cc3c[nH]c4ccccc34)C(=O)N[C@@H](CCCNC(=N)N)C(N)=O)C(C)C)C(C)C)(C2)NC(=O)[C@H](CC(=O)O)NC(=O)[C@H](CC(C)C)NC1=O (single isomer, unassigned) [FP0735a, Ac-P-Q-R6-I-L-D-MA-H-V-R-R-V-W-R-NH2] in this work. With CC[C@H](C)[C@@H]1NC(=O)[C@H](Cc2ccccn2)NC(=O)[C@H](C)NC(=O)[C@H](CC(=O)O)NC(=O)[C@H](CC(C)C)NC(=O)[C@H]([C@@H](C)CC)NC(=O)[C@](C)(NC(=O)[C@H](C)NC(C)=O)CCCCCCC=CCOC(=O)N2CC[C@@](C(=O)N[C@@H](Cc3ccco3)C(=O)N[C@H](C(=O)N[C@@H](Cc3c[nH]c4ccccc34)C(N)=O)C(C)C)(C2)NC1=O (single isomer, unassigned) [FP0569c Isomer 1, Ac-A-R8-I-L-D-A-2pyr-I-MB-fur-V-W-NH2] the pEC50 was < 5.30. A pEC50 of 5.30 to 6.30 was found for CC[C@H](C)[C@@H]1NC(=O)[C@H](Cc2c[nH]cn2)NC(=O)[C@H](C)NC(=O)[C@H](CC(=O)O)NC(=O)[C@H](CC(C)C)NC(=O)[C@H]([C@@H](C)CC)NC(=O)[C@](C)(NC(=O)[C@H](C)NC(C)=O)CCCCCCC=CCOC(=O)N2CC[C@@](C(=O)N[C@@H](CCCNC(=N)N)C(=O)N[C@H](C(=O)N[C@@](C)(Cc3c[nH]c4ccccc34)C(N)=O)C(C)C)(C2)NC1=O [FP0631c, Ac-A-R8-I-L-D-A-H-I-MB-R-V-aMeW-NH2] in this work. CC[C@H](C)[C@@H]1NC(=O)[C@@]2(NC(=O)[C@H](C)NC(=O)[C@@H]3CCCN3C(C)=O)CCN(CC=CCCCCCC[C@@](C)(C(=O)N[C@@H](CCCNC(=N)N)C(=O)N[C@H](C(=O)N[C@@H](Cc3c[nH]c4ccccc34)C(N)=O)C(C)C)NC(=O)[C@H](C(C)C)NC(=O)[C@H](Cc3c[nH]cn3)NC(=O)[C@H](C)NC(=O)[C@H](CC(=O)O)NC(=O)[C@H](CC(C)C)NC1=O)C2 [FP0006a, Ac-P-A-MC-I-L-D-A-H-V-S8-R-V-W-NH2] (Ac-PA[X14]ILDAHV[S8]RVW-NH2; staple 3-10) was tested, and the pEC50 was > 7.00. A pEC50 of 5.30 to 6.30 was found for CC[C@H](C)[C@@H]1NC(=O)C2(NC(=O)[C@H](CCC(N)=O)NC(=O)[C@@H]3CCCN3C(C)=O)CN(C2)C(=O)OCC=CCCC[C@@](C)(C(=O)N[C@@H](Cc2c[nH]cn2)C(=O)N[C@H](C(=O)N[C@@H](CCCNC(=N)N)C(=O)N[C@@H](CCCNC(=N)N)C(=O)N[C@H](C(=O)N[C@@H](Cc2c[nH]c3ccccc23)C(=O)N[C@@H](CCCNC(=N)N)C(N)=O)C(C)C)C(C)C)NC(=O)[C@H](CC(=O)O)NC(=O)[C@H](CC(C)C)NC1=O (single isomer, unassigned) [FP0724c, Ac-P-Q-MA-I-L-D-S5-H-V-R-R-V-W-R-NH2] in this work. A pEC50 of 6.30 to 7.00 was found for CC[C@H](C)[C@@H]1NC(=O)[C@H](Cc2c[nH]cn2)NC(=O)[C@H](C)NC(=O)[C@H](CC(=O)O)NC(=O)[C@H](CC(C)C)NC(=O)[C@H]([C@@H](C)CC)NC(=O)[C@](C)(NC(=O)[C@H](C)NC(C)=O)CCCCCCC=CCOC(=O)N2CC[C@@](C(=O)N[C@@H](CCCCNC)C(=O)N[C@H](C(=O)N[C@@H](Cc3c[nH]c4ccccc34)C(N)=O)C(C)C)(C2)NC1=O [FP0636c, Ac-A-R8-I-L-D-A-H-I-MB-lmeK-V-W-NH2] in this work. With CC[C@H](C)[C@@H]1NC(=O)[C@H](Cc2c[nH]cn2)NC(=O)[C@H](C)NC(=O)[C@H](CC(=O)O)NC(=O)[C@H](CC(C)C)NC(=O)[C@H]([C@@H](C)CC)NC(=O)[C@](C)(NC(=O)[C@H](C)NC(C)=O)CN(C)C(=O)OCC=CCOC(=O)N(C)CC[C@@](C)(C(=O)N[C@@H](CCCNC(=N)N)C(=O)N[C@H](C(=O)N[C@@H](Cc2c[nH]c3ccccc23)C(N)=O)C(C)C)NC1=O [FP0601c, Ac-A-ME-I-L-D-A-H-I-MF-R-V-W-NH2] (Ac-A[dαMeDap(Me)]ILDAHI[αMeDab(Me)]RVW-NH2; linker 2-9 via X2) the pEC50 was > 7.00. A pEC50 of 5.30 to 6.30 was found for CC[C@H](C)[C@@H]1NC(=O)[C@](C)(NC(=O)[C@H](CCC(N)=O)NC(=O)[C@@H]2CCCN2C(C)=O)CCCC=CCN(C)CCC[C@](C)(C(=O)N[C@@H](Cc2c[nH]cn2)C(=O)N[C@H](C(=O)N[C@@H](CCCNC(=N)N)C(=O)N[C@@H](CCCNC(=N)N)C(=O)N[C@H](C(=O)N[C@@H](Cc2c[nH]c3ccccc23)C(=O)N[C@@H](CCCNC(=N)N)C(N)=O)C(C)C)C(C)C)NC(=O)[C@H](CC(=O)O)NC(=O)[C@H](CC(C)C)NC1=O (single isomer, unassigned) [FP0777a, Ac-P-Q-R5-I-L-D-MI-H-V-R-R-V-W-R-NH2] in this work. A pEC50 of 5.30 to 6.30 was found for CC[C@H](C)[C@@H]1NC(=O)[C@H](Cc2c[nH]cn2)NC(=O)[C@H](C)NC(=O)[C@H](CC(=O)O)NC(=O)[C@H](CC(C)C)NC(=O)[C@H]([C@@H](C)CC)NC(=O)[C@](C)(NC(=O)[C@H](C)NC(C)=O)CCCCCCC=CCOC(=O)N2CC[C@@](C(=O)N[C@@H](Cc3cccc4ccccc34)C(=O)N[C@H](C(=O)N[C@@H](Cc3c[nH]c4ccccc34)C(N)=O)C(C)C)(C2)NC1=O (single isomer, unassigned) [FP0365c Isomer 2, Ac-A-R8-I-L-D-A-H-I-MB-1NapA-V-W-NH2] in this work. CC[C@H](C)[C@@H]1NC(=O)[C@H](Cc2c[nH]cn2)NC(=O)[C@H](C)NC(=O)[C@H](CC(=O)O)NC(=O)[C@H](CC(C)C)NC(=O)[C@H]([C@@H](C)CC)NC(=O)[C@](C)(NC(=O)[C@H](C)NC(C)=O)CCCCCCC=CCCC[C@@](C)(C(=O)N[C@@H](CCCNC(=N)N)C(=O)N[C@H](C(=O)N[C@@H](Cc2c[nH]c3ccccc23)C(N)=O)C(C)C)NC1=O (single isomer, unassigned) [FP0217s Isomer 1, Ac-A-R8-I-L-D-A-H-I-S5-R-V-W-NH2] was tested, and the pEC50 was > 7.00. CC[C@H](C)[C@@H]1NC(=O)[C@H](Cc2ccccn2)NC(=O)[C@H](C)NC(=O)[C@H](CC(=O)O)NC(=O)[C@H](CC(C)C)NC(=O)[C@H]([C@@H](C)CC)NC(=O)[C@](C)(NC(=O)[C@H](C)NC(C)=O)CCCCCCC=CCOC(=O)N2CC[C@@](C(=O)N[C@@H](Cc3ccc(OC)cc3)C(=O)N[C@H](C(=O)N[C@@H](Cc3c[nH]c4ccccc34)C(N)=O)C(C)C)(C2)NC1=O (single isomer, unassigned) [FP0575c Isomer 2, Ac-A-R8-I-L-D-A-2pyr-I-MB-MeY-V-W-NH2] was tested, and the pEC50 was < 5.30. In the case of CC[C@H](C)[C@@H]1NC(=O)[C@H](Cc2ccccn2)NC(=O)[C@H](C)NC(=O)[C@H](CC(=O)O)NC(=O)[C@H](CC(C)C)NC(=O)[C@H]([C@@H](C)CC)NC(=O)[C@](C)(NC(=O)[C@H](C)NC(C)=O)CCCCCCC=CCOC(=O)N2CC[C@@](C(=O)N[C@@H](Cc3cccc4ccccc34)C(=O)N[C@H](C(=O)N[C@@H](Cc3c[nH]c4ccccc34)C(N)=O)C(C)C)(C2)NC1=O (single isomer, unassigned) [FP0577c Isomer 1, Ac-A-R8-I-L-D-A-2pyr-I-MB-1NapA-V-W-NH2], the pEC50 was < 5.30. For CC[C@H](C)[C@@H]1NC(=O)[C@H](Cc2ccccn2)NC(=O)[C@H](C)NC(=O)[C@H](CC(=O)O)NC(=O)[C@H](CC(C)C)NC(=O)[C@H]([C@@H](C)CC)NC(=O)[C@](C)(NC(=O)[C@H](C)NC(C)=O)CCCCCCC=CCOC(=O)N2CC[C@@](C(=O)N[C@@H](CCC(N)=O)C(=O)N[C@H](C(=O)N[C@@H](Cc3c[nH]c4ccccc34)C(N)=O)C(C)C)(C2)NC1=O (single isomer, unassigned) [FP0559c Isomer 1, Ac-A-R8-I-L-D-A-2pyr-I-MB-Q-V-W-NH2], the pEC50 was < 5.30.
